Reference: patent US20210215714A1, “COMPLEMENT ALTERNATIVE PATHWAY-ASSOCIATED NEPHROPATHY BIOMARKERS” (Achillion Pharmaceuticals, Inc., priority 2018, published 2021)

Tests used:
[1] = tested on: AP C3 convertase formation; assay: Phase 2a study: ex vivo serum Ba production; assay type: in vivo, human; details: 14-day treatment, patients A-F
Procedure: (§1) Systemic complement proteins were measured in serum and plasma including serum Ba, plasma Bb, serum C3, serum Factor D, serum C4, and % Fragment C3.

Factor D = assay: Phase 2a study: Factor D levels in serum; assay type: in vivo, human; details: 14-day treatment, patients A-F
Procedure: as §1
Factor D levels in serum were measured using a quantitative sandwich enzyme immunoassay technique. A monoclonal antibody specific for human Complement Factor D was pre-coated onto a micro-assay plate. Standards and samples were pipetted into the wells and any Complement Factor D present was bound by the immobilized antibody. After washing away any unbound substances, an enzyme-linked polyclonal antibody specific for human Complement Factor D was added to the wells. Following a wash to remove any unbound antibody-enzyme reagent, a substrate solution was added to the wells and color develops in proportion to the amount of Complement Factor D bound in the initial step. The color development was stopped and the intensity of the color was measured spectrophotometrically at 450 nm.

CC(=O)c1nn(CC(=O)N2C[C@H](F)C[C@H]2C(=O)Nc2cccc(Br)n2)c2ccc(-c3cnc(C)nc3)cc12 [Compound 1, (2S,4R)-1-(2-(3-acetyl-5-(2-methylpyrimidin-5-yl)-1H-indazol-1-yl)acetyl)-N-(6-bromopyridin-2-yl)-4-fluoropyrrolidine-2-carboxamide]
Ex vivo serum Ba production [1]: inhibited | Serum Factor D (Factor D): remained unchanged
